# Experiments:
# [1] = test system: LNCaP (left shoulder) and PC-3 (right shoulder) tumor bearing nude mouse; assay: Small animal PET imaging with [68Ga]1a and [68Ga]4a; format: in vivo; conditions: 60 to 75 min after i.v. injection
# Method: Male athymic mice (CD-1 nude, 5-6 weeks old) were obtained from Charles River, and were allowed to acclimatize at the vivarium for 1 week prior to implanting tumors. Mice were provided with food and water ad libitum. LNCaP tumors were induced on the left shoulder by sub-cutaneous (s.c.) injection of 5.0×10^6 cells in a 200 μL cell suspension of a 1:1 v/v mixture of media with reconstituted basement membrane (BD Matrigel™, Collaborative Biomedical Products Inc., Bedford, Mass.). Similarly, PC-3 tumors were induced on the right shoulder by s.c. injection of 2.0×10^6 cells. Palpable LNCaP tumors developed after a period of 4-5 weeks.
# Dynamic small animal PET (APET) imaging studies of LNCaP (left shoulder) and PC-3 (right shoulder) tumor bearing nude mouse were performed with [^68Ga]1a and [^68Ga]4a. PET imaging studies were performed on a Phillips Mosaic small animal PET scanner, which has an imaging field of view of 11.5 cm. Under isoflurane anesthesia (1-2%, 1 L/min oxygen), the tumor-bearing nude mouse was injected with 0.5 mCi activity by an intravenous injection into the lateral tail vein. Data acquisition began at 30 min after the injection. Dynamic scans were conducted over a period of 1 h (5 min/frame; image voxel size 0.5 mm^3). Mouse was visually monitored for breathing, and a heating pad was used to maintain body temperature throughout the entire procedure. Images were reconstructed and a region of interest (ROI) analysis was performed using AMIDE software (http://amide.sourceforge.net/).
# Representative animal PET images of LNCaP xenograft mice between 60 to 75 min after i.v. injection of [^68Ga]1a, and [^68Ga]4a are shown in FIGS. 3A-3F. […] FIGS. 3A-3F show sagittal, transaxial and coronal sections of APET images of nude mouse with LNCaP tumor at left shoulder and PC-3 tumor at right shoulder between 60 to 75 min post i.v. injection of [^68Ga]1a (FIGS. 3A-3C) and [^68Ga]4a (FIG. 3D-3F).
# [2] = Biodistribution of radiotracers in normal mice; format: in vivo, mouse; conditions: normal male mice
# Method: Normal CD-1 male mice were injected via the tail vein with 35 μCi of [^68Ga] radiotracers (0.2 nmole of ligand). […] All organs were removed and blood was also collected. Each organ was weighed, and the tissue radioactivity was measured with an automated gamma counter (Wizard, Perkin Elmer). The % ID/g was calculated by comparison with samples of a standard dilution of the initial dose. All measurements were corrected for decay.
compound,measurement,setting,value
"O=C(O)CCc1ccc(O)c(CN(CCN(CC(=O)O)Cc2cc(CCC(=O)NCCCCCC(=O)NCCCC[C@H](NC(=O)N[C@@H](CCC(=O)O)C(=O)O)C(=O)O)ccc2O)CC(=O)O)n1 [[^68Ga]4a, metal not drawn]","LNCaP tumor visualization in PET images, in words",[1],clearly visualized
same,"PC-3 (PSMA negative) tumor uptake in PET images, in words",[1],did not show any uptakes
same,Biodistribution: Blood,[2]; 2 min,8.59 ± 0.82 % dose/g
same,Biodistribution: Bone,[2]; 2 min,2.33 ± 0.21 % dose/g
same,Biodistribution: Brain,[2]; 2 min,0.27 ± 0.04 % dose/g
same,Biodistribution: Heart,[2]; 2 min,3.62 ± 0.34 % dose/g
same,Biodistribution: Kidney,[2]; 2 min,60.7 ± 2.89 % dose/g
same,Biodistribution: Liver,[2]; 2 min,2.22 ± 0.23 % dose/g
same,Biodistribution: Lung,[2]; 2 min,5.45 ± 0.44 % dose/g
same,Biodistribution: Muscle,[2]; 2 min,2.68 ± 0.30 % dose/g
same,Biodistribution: Pancreas,[2]; 2 min,2.35 ± 0.12 % dose/g
same,Biodistribution: Skin,[2]; 2 min,2.84 ± 0.19 % dose/g
same,Biodistribution: Spleen,[2]; 2 min,3.64 ± 0.16 % dose/g
same,Biodistribution: Blood,[2]; 30 min,0.95 ± 0.33 % dose/g
same,Biodistribution: Bone,[2]; 30 min,0.37 ± 0.10 % dose/g
same,Biodistribution: Brain,[2]; 30 min,0.04 ± 0.01 % dose/g
same,Biodistribution: Heart,[2]; 30 min,0.56 ± 0.21 % dose/g
same,Biodistribution: Kidney,[2]; 30 min,148 ± 5.73 % dose/g
same,Biodistribution: Liver,[2]; 30 min,0.39 ± 0.12 % dose/g
same,Biodistribution: Lung,[2]; 30 min,1.55 ± 0.30 % dose/g
same,Biodistribution: Muscle,[2]; 30 min,0.61 ± 0.10 % dose/g
same,Biodistribution: Pancreas,[2]; 30 min,0.89 ± 0.12 % dose/g
same,Biodistribution: Skin,[2]; 30 min,0.99 ± 0.16 % dose/g
same,Biodistribution: Spleen,[2]; 30 min,3.51 ± 1.69 % dose/g
same,Biodistribution: Blood,[2]; 60 min,0.30 ± 0.03 % dose/g
same,Biodistribution: Bone,[2]; 60 min,0.24 ± 0.02 % dose/g
same,Biodistribution: Brain,[2]; 60 min,0.03 ± 0.00 % dose/g
same,Biodistribution: Heart,[2]; 60 min,0.31 ± 0.14 % dose/g
same,Biodistribution: Kidney,[2]; 60 min,181 ± 26.81 % dose/g
same,Biodistribution: Liver,[2]; 60 min,0.23 ± 0.01 % dose/g
same,Biodistribution: Lung,[2]; 60 min,1.18 ± 0.14 % dose/g
same,Biodistribution: Muscle,[2]; 60 min,0.35 ± 0.07 % dose/g
same,Biodistribution: Pancreas,[2]; 60 min,1.09 ± 0.27 % dose/g
same,Biodistribution: Skin,[2]; 60 min,0.45 ± 0.07 % dose/g
same,Biodistribution: Spleen,[2]; 60 min,2.83 ± 1.49 % dose/g
same,Biodistribution: Blood,[2]; 120 min,0.20 ± 0.10 % dose/g
same,Biodistribution: Bone,[2]; 120 min,0.23 ± 0.06 % dose/g
same,Biodistribution: Brain,[2]; 120 min,0.02 ± 0.00 % dose/g
same,Biodistribution: Heart,[2]; 120 min,0.21 ± 0.03 % dose/g
same,Biodistribution: Kidney,[2]; 120 min,128 ± 25.0 % dose/g
same,Biodistribution: Liver,[2]; 120 min,0.18 ± 0.05 % dose/g
same,Biodistribution: Lung,[2]; 120 min,0.83 ± 0.21 % dose/g
same,Biodistribution: Muscle,[2]; 120 min,0.20 ± 0.03 % dose/g
same,Biodistribution: Pancreas,[2]; 120 min,1.02 ± 0.26 % dose/g
same,Biodistribution: Skin,[2]; 120 min,0.30 ± 0.02 % dose/g
same,Biodistribution: Spleen,[2]; 120 min,2.83 ± 1.25 % dose/g
